Earlier results as cited in patent US20250032463A1, “RAPAMYCIN-CONTAINING PHARMACEUTICAL COMPOSITION” (NOBELPHARMA CO., LTD., priority 2023, published 2025).

CO[C@H]1C[C@@H]2CC[C@@H](C)[C@@](O)(O2)C(=O)C(=O)N2CCCC[C@H]2C(=O)O[C@H]([C@H](C)C[C@@H]2CC[C@@H](O)[C@H](OC)C2)CC(=O)[C@H](C)/C=C(\C)[C@@H](O)[C@@H](OC)C(=O)[C@H](C)C[C@H](C)/C=C/C=C/C=C/1C [rapamycin, Rapamycin]
stability in aqueous solvents: unstable
